Experimental data published in paper PMC3796470, “BdorCSP2 Is Important for Antifeed and Oviposition-Deterring Activities Induced by Rhodojaponin-III against Bactrocera dorsalis” (PLoS ONE, 2013).
pKd: −log10 of the molar value.

Tests used:
[1] = biological target: T1, BdorCSP2 (Bactrocera dorsalis, UniProt S5TKX2); assay: fluorescent probe titration with Scatchard analysis; type: binding
T1 construct: gene CSP2; mature BdorCSP2 (signal peptide removed), recombinant from E. coli BL21 (DE3), His-tag-removed; GenBank KC897022
T1 sequence (S5TKX2 23-156): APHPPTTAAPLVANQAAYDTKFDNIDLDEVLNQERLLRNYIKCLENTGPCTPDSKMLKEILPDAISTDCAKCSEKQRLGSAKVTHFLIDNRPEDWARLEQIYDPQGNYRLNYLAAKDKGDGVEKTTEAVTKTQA

[2] = biological target: T1, BdorCSP2; assay: competitive fluorescence binding assay, displacement of 1-NPN

Row | SMILES | pKd [1] | pKd [2]
1 | c1ccc(Nc2cccc3ccccc23)cc1 [N-phenyl-1-naphthylamine] | 5.57 | 
2 | CC1(C)[C@H]2O[C@H]2[C@H]2[C@](C)(O)[C@@H]3CC[C@@H]4[C@@H](O)[C@@]3(C[C@@H](O)[C@@]21O)C[C@@]4(C)O [Rhodojaponin-III] |  | 4.46
